Measurements published in article PMC5549732 (PLoS ONE, 2017).
Where “and” joins values, the source holds several entries; their conditions need not be identical. Identical values can stand only once.

Legend:
HCT116-luc2 tumors [1] = test: BLI of firefly luciferase activity (tumor viability) in HCT116-luc2 xenografts; format: in vivo, nu/nu mice
Protocol: Optical BLI and FLI were performed using the IVIS® SpectrumCT, which is capable of imaging multiple mice simultaneously (up to 5 mice). To generate BLI signals, the tumor-bearing mice received IP injections of 75 mg/kg of D-luciferin (potassium salt, PerkinElmer Inc.) and were placed into the imager for sequential image acquisitions (settings: FOV = D, Binning = 16, F/Stop = 1, Open filter, 2 min delay between each acquisition) under 1–2% of isoflurane anesthesia. Maximal bioluminescence output for each tumor was determined by sequentially acquiring a BLI image every two minutes for up to 16 min. Typical peak imaging time for the HCT116-luc2 subcutaneous model was approximately 10 min, and BLI images are represented in units of radiance (p/sec/cm^2/sr).
(§1) BLI and FLI images were analyzed using the Living Image software (version 4.4 for Windows, PerkinElmer Inc.). Tumor BLI and FLI signals were quantified using the region of interest (ROI) tools, and the total optical signals were calculated as total flux (photon counts/sec) and total radiant efficiency [(p/s)/(μW/cm^2)], respectively. For greater accuracy, all FLI data was corrected for background levels based on specific measurements as described in the figure legends. All PET images were represented as standard uptake value (SUV) using the VivoQuant 3.0 software and tumor-specific ^18F-FDG uptake levels were also calculated using SUVtotal. […] For each treatment group, we calculated relative tracer uptake in tumors using the day 0 uptake level as 100%. For statistical analysis, we used the GraphPad Prism software (version 6.0 for Windows, La Jolla, CA). Data are presented as the mean ± standard error of the mean (s.e.m.). Statistical analysis was conducted using ANOVA or Student’s t-test, as indicated. P < 0.05 was the cutoff for being considered statistically significant.

[2] = test system: HCT116-luc2 subcutaneous xenografts; test: Caliper tumor volume measurement of subcutaneous HCT116-luc2 xenografts
Protocol: Specific pathogen-free nu/nu (Crl:NU-Fox1^nu, 6–8 weeks old) and CD-1 (Crl:CD1[ICR]) mice were purchased from Charles River Laboratories (Wilmington, MA). Mice were housed in a controlled environment (72°F; 12:12-h light-dark cycle) under specific-pathogen free conditions with water and food provided ad libitum. To induce tumor growth, 2.5 x10^6 of HCT116-luc2 cells were subcutaneously injected on the right flank of a nude mouse. Two weeks after cancer cell inoculation, when the tumor volume reached an appropriate size (measured by caliper and calculated by the formula 0.5 x length x width^2), animals were randomized into vehicle or different sorafenib treatment groups as indicated. Sorafenib was prepared in water containing 6.2% of ethanol and 6.2% of Kolliphor EL (Sigma-Aldrich, St. Louis, MO). The treatment was given daily 5 times a week by oral gavage at 15 μl per gram of body weight.
We initiated the treatment when the average HCT116-luc2 tumor size for each group reached ~180 mm^3 in volume (day 0). The drug was given daily via oral gavage at a dosage of 120 mg/kg from days 0 to 4 and from days 7 to 9.
In this set of studies (Fig 2), treatments were initiated when the average group HCT116-luc2 tumor size reached ~100 mm^3 in volume. […] The drug was given daily, from days 0 to 4 and from days 7 to 11. In addition to the conventional tumor volume measurements by caliper, we performed BLI of firefly luciferase activity to access tumor viability on the days indicated.

HCT116-luc2 tumors [3] = test: 18F-FDG microPET imaging of tumor glucose uptake; format: in vivo, nu/nu mice; conditions: sorafenib 40 mg/kg daily oral gavage; days 2 and 3 post-treatment; n = 5 per group
Protocol: We also performed microPET imaging using ^18F-FDG as a tracer for detecting changes in tumor glucose uptake with or without treatment. Images were acquired using the G8 PET/CT system (PerkinElmer Inc.). For each mouse, 100 μCi of ^18F-FDG (PETNET Solutions Inc., Malvern PA) was injected intravenously (IV), and all mice were kept warm and maintained under 1.5% isoflurane gas anesthesia for 1 hour for tracer uptake. Subsequently, the mice were imaged with a standard 10 min static F-18 imaging protocol. The G8 PET/CT system automatically performed image reconstruction after acquisition and provided 3D tomography imaging in the DICOM format. We were able to image the same cohorts (n = 5) throughout the course of study since ^18F has a relative short decay half-life (~110 min). […]
(§2) BLI and FLI images were analyzed using the Living Image software (version 4.4 for Windows, PerkinElmer Inc.). Tumor BLI and FLI signals were quantified using the region of interest (ROI) tools, and the total optical signals were calculated as total flux (photon counts/sec) and total radiant efficiency [(p/s)/(μW/cm^2)], respectively. […] All PET images were represented as standard uptake value (SUV) using the VivoQuant 3.0 software and tumor-specific ^18F-FDG uptake levels were also calculated using SUVtotal. […] For each treatment group, we calculated relative tracer uptake in tumors using the day 0 uptake level as 100%. […]

HCT116-luc2 tumors [4] = test: H&E histology of tumor tissue sections; format: in vivo, nu/nu mice; conditions: sorafenib 120 mg/kg, days 0-4 and 7-9; day 9
Protocol: Tumor tissues were fixed in 10% neutral buffered formalin, followed by routine process and embedment in paraffin. Tissue sections (5 μm) were prepared on electrostatically charged glass slides and then baked at 60°C overnight. After washing the slides with three washes in xylene, the slides were rehydrated through a series of graded ethanol (100%, 90% and 70%) to water. The prepared slides were then stained with hematoxylin and eosin.
Fig 1 Sorafenib, a tyrosine kinase inhibitor, effectively suppresses HCT116-luc2 tumor growth. Nude mice bearing subcutaneous tumors on the flanks were treated with vehicle or with 120 mg/kg of sorafenib on days 0–4 and days 7–9 via oral gavage. A: Longitudinal tumor volume measurements of subcutaneous HCT116-luc2 tumors (***p < 0.0001, n = 5 per group, two-way ANOVA, mean and s.e.m., representative of three studies) B: H&E staining of tumor tissue sections harvested from the vehicle and sorafenib-treated (120 mg/kg) tumors on day 9. […] Bar: 50 μm.

HCT116-luc2 tumors [5] = test: TfV-750 fluorescence imaging (FLI) of tumor transferrin receptor expression; format: in vivo, nu/nu mice
Protocol: In addition, the imager is equipped with suitable excitation and emission filter sets for FLI of BRS-680 and TfV-750. Tumor metabolic activities were visualized by IV injection of a mixture of these two NIR imaging agents (2 nmol/mouse each in a total volume of 100 μl of PBS). The agents were injected 16 h prior to FLI imaging in order to allow optimal probe uptake and clearance of unbound probe. For the longitudinal FLI imaging studies, separate cohorts were used for FLI acquisitions on days 1 (n = 10, imaging agents injected on day 0), 2 (n = 10, injected on day 1), and 3 (n = 5, injected on day 2) due to the extended time required for probe washout. […]
as §2

HCT116-luc2 tumors [6] = test: BRS-680 fluorescence imaging (FLI) of tumor bombesin receptor expression; format: in vivo, nu/nu mice; conditions: for inhibition of BRS-680 tumor FLI signal: sorafenib 40 mg/kg daily oral gavage
Protocol: In addition, the imager is equipped with suitable excitation and emission filter sets for FLI of BRS-680 and TfV-750. Tumor metabolic activities were visualized by IV injection of a mixture of these two NIR imaging agents (2 nmol/mouse each in a total volume of 100 μl of PBS). The agents were injected 16 h prior to FLI imaging in order to allow optimal probe uptake and clearance of unbound probe. For the longitudinal FLI imaging studies, separate cohorts were used for FLI acquisitions on days 1 (n = 10, imaging agents injected on day 0), 2 (n = 10, injected on day 1), and 3 (n = 5, injected on day 2) due to the extended time required for probe washout. […] Fluorescent signal is represented as radiant efficiency [(p/sec/cm^2/sr)/(μW/cm^2)] or normalized fluorescent signal where appropriate.
as §1, with “SUVtotal. Several similar imaging experiments were performed using this particular HCT116-luc2 tumor model to visualize treatment responses to sorafenib.” for “SUVtotal.”
Besides interfering with glycolytic activity, we believe inhibition of the Ras/Raf/MEK/ERK pathways with sorafenib has a broader, global impact on tumor energy metabolism. […] We wonder if these FLI probes can detect early, yet subtle metabolic disturbances induced by sorafenib treatment prior to the later regression of treated tumors, like we saw with ^18F-FDG PET imaging. […] Separate cohorts were used for FLI acquisitions on days 1, 2, and 3 due to the extended time required for probe washout. Of note, the day 1 cohort was re-injected with probe for imaging on day 10 to assess ultimate treatment efficacy. […]

[7] = Plasma pharmacokinetics of the probes, fluorescence microplate assay; format: in vivo; conditions: CD-1 mice; 2 nmoles IV; plasma fluorescence on a microplate reader
Protocol: (§3) Selectivity was assessed in vitro using HT-29 human colorectal cells; fluorescence signal on BRS-680-labeled cells was ~7X greater than either the scrambled peptide version of the probe or when 100X unlabeled bombesin peptide was used to block labeling (S2 Fig) as assessed by both flow cytometry and fluorescence microscopy. […] Tumor tissue localization co-localized well with ex vivo anti-bombesin receptor staining (S5 Fig).
Selectivity was assessed in vitro by flow cytometry and fluorescence microscopy using HT-29 human colorectal cells; fluorescence signal on TfV-750-labeled cells was ~15X greater than when 100 μM unlabeled recombinant transferrin was used to block labeling (S7 Fig). […] Animals were bled at indicated times, and plasma fluorescence was determined using a microplate assay. […]
Blood samples were obtained via terminal cardiac puncture and plasma fluorescence was quantified on a fluorescence plate reader. […] Epifluorescence levels were determined using TrueQuant™ FMT software and are represented as Mean Fluorescence to compensate for differences in tissue size. […]
B: Quantification of tissue epifluorescence images, with data inset representing plasma pharmacokinetics assessed from serial bleeds of mice measured on a microplate fluorimeter. […]

HT-29 tumors = test: Biodistribution and in vivo imaging kinetics of the probes in HT-29 tumor-bearing mice; parameters: species or system nu/nu mice
Protocol: as §3
Selectivity was assessed in vitro by flow cytometry and fluorescence microscopy using HT-29 human colorectal cells; fluorescence signal on TfV-750-labeled cells was ~15X greater than when 100 μM unlabeled recombinant transferrin was used to block labeling (S7 Fig). […] Animals were bled at indicated times, and plasma fluorescence was determined using a microplate assay. […] The probe has good tissue penetration into tumors, as its binding pattern in tumor sections (using a 645 nm FLI surrogate to improve microscopy imaging) correlates well with the transferrin receptor expression on cancer cells and is not associated with the tumor vasculature (S10 Fig).
Blood samples were obtained via terminal cardiac puncture and plasma fluorescence was quantified on a fluorescence plate reader. […] Mice were sacrificed 24 hours post-injection and tissues were excised, rinsed with PBS, and imaged on the FMT 4000 (PerkinElmer, Waltham, MA), in epifluorescence mode. Epifluorescence levels were determined using TrueQuant™ FMT software and are represented as Mean Fluorescence to compensate for differences in tissue size. (TIF) Click here for additional data file.
Noninvasive fluorescence tomographic imaging datasets were used to quantify kinetic fluorescence changes in the tumors, heart, and liver. An optimal imaging time point of 24h was determined based on specificity of tumor signal and tumor’s signal-to-background ratio. (TIF) Click here for additional data file.
B: Quantification of tissue epifluorescence images, with data inset representing plasma pharmacokinetics assessed from serial bleeds of mice measured on a microplate fluorimeter. (TIF) Click here for additional data file.
Elevated TfV-750 signals in the liver and tumor indicate higher iron metabolism in these tissues. (TIF) Click here for additional data file.

[8] = sorafenib 40 mg/kg, first 3 days of treatment
[9] = sorafenib 40 mg/kg, within 2 days of treatment, n = 5 per group
[10] = sorafenib 120 mg/kg daily for 8 days, imaged day 9, stated for both FLI probes
[11] = HT-29 tumor-bearing mice, 2 nmol/mouse IV
[12] = HT-29 tumor-bearing nu/nu mice, 2 nmol IV, tissues excised 24 h post-injection, epifluorescence

Molecule: CNC(=O)c1cc(Oc2ccc(NC(=O)Nc3ccc(Cl)c(C(F)(F)F)c3)cc2)ccn1 [sorafenib, Sorafenib]
- reduction in BLI signal (HCT116-luc2 tumors [1]; [8]): no significant reduction
- reduction in viability (assessed by BLI) (HCT116-luc2 tumors [1]; [9]): no significant reduction
- BLI and tumor volume results compared with the 120 mg/kg dose (HCT116-luc2 tumors [1]; sorafenib 80 mg/kg daily, days 0-4 and 7-11): Comparable results
- suppression of tumor viability (BLI) (HCT116-luc2 tumors [1]; sorafenib 120 mg/kg daily, days 0-4 and 7-11, by day 11, n = 5 per group): ~ 90%
- reduction in tumor BLI signals (HCT116-luc2 tumors [1]; sorafenib 120 mg/kg, 2 days after the treatment began, n = 5 per group): ~ 40%
- decrease of overt tumor size ([2]; sorafenib 40 mg/kg daily, by day 10, PET study cohort, n = 5 per group): ~ 50%
- growth inhibition in comparison with untreated control tumors ([2]; sorafenib 40 mg/kg, by day 10 or 11, over multiple studies): 50–90%
- reduction in tumor volume [2, 8]: no significant reduction
- reduction in size (tumor volume) [2, 9]: no significant reduction
- efficacy against tumor growth by tumor volume, versus vehicle ([2]; sorafenib 120 mg/kg oral gavage, days 0-4 and 7-9, n = 5 per group): clearly demonstrated the drug’s efficacy
- change in tumor volume ([2]; sorafenib 120 mg/kg, day 2, n = 5 per group): no significant change
- inhibition of tumor uptake of 18F-FDG (HCT116-luc2 tumors [3]): 55–60% and 50–60%
- tumor death in H&E stained tumor tissue sections (HCT116-luc2 tumors [4]): extensive tumor death
- inhibition of TfV-750 tumor FLI signal (HCT116-luc2 tumors [5]; sorafenib 40 mg/kg daily oral gavage, day 3, n = 5): 65% and ~ 70%
- reduction in TfV-750 FLI signal as compared to controls (HCT116-luc2 tumors [5]; [10]): ≥ 40%
- inhibition of BRS-680 tumor FLI signal (HCT116-luc2 tumors [6]; day 2, n = 10): 40%
- inhibition of BRS-680 tumor FLI signal (HCT116-luc2 tumors [6]; day 3, n = 5): 79%
- inhibition of BRS-680 tumor signal (HCT116-luc2 tumors [6]; sorafenib 40 mg/kg, within the 2-3 day window, normalized to vehicle control): 40–80%
- reduction in BRS-680 FLI signal as compared to controls (HCT116-luc2 tumors [6]; [10]): ≥ 40%

Molecule: TfV-750: PEGylated recombinant transferrin with a NIR fluorescent reporter (ex/em 750/770 nm); transferrin receptor imaging probe
- circulation half-life (plasma t1/2) [7]: ~ 9 h
- optimal time for in vivo tumor imaging post injection (HT-29 tumors; [11]): 6 to 24 h
- time to (near) complete clearance from the system (HT-29 tumors; [11]): about 4 days
- biodistribution to tumors in collected tissues (HT-29 tumors; [12]): good biodistribution to tumors
- route of clearance in collected tissues (HT-29 tumors; [12]): efficient clearance via kidney excretion
